Assay results from patent US8889677B2, “Substituted triazoles useful as mGlu5 receptor modulators” (Boehringer Ingellheim International GmbH, priority 2012, dated 2014).

These compounds were tested against T1, human recombinant mGluR5 (Homo sapiens, UniProt P41594) (assay: positive modulation of mGluR5, calcium based FLIPR assay in HEK 293 cells). Details: HEK 293 cell line expressing human recombinant mGluR5; EC50 of the modulation of the glutamate response (glutamate approx. 5% basal stimulation); peak height of Ca release fluorescence signal.
T1 construct: expressed in transfected cells; host or cells: HEK 293 cell line cultured with tetracycline, hygromycin and geneticin; tetracycline removed 3-7 days before the assay
T1 sequence (P41594 21-1212): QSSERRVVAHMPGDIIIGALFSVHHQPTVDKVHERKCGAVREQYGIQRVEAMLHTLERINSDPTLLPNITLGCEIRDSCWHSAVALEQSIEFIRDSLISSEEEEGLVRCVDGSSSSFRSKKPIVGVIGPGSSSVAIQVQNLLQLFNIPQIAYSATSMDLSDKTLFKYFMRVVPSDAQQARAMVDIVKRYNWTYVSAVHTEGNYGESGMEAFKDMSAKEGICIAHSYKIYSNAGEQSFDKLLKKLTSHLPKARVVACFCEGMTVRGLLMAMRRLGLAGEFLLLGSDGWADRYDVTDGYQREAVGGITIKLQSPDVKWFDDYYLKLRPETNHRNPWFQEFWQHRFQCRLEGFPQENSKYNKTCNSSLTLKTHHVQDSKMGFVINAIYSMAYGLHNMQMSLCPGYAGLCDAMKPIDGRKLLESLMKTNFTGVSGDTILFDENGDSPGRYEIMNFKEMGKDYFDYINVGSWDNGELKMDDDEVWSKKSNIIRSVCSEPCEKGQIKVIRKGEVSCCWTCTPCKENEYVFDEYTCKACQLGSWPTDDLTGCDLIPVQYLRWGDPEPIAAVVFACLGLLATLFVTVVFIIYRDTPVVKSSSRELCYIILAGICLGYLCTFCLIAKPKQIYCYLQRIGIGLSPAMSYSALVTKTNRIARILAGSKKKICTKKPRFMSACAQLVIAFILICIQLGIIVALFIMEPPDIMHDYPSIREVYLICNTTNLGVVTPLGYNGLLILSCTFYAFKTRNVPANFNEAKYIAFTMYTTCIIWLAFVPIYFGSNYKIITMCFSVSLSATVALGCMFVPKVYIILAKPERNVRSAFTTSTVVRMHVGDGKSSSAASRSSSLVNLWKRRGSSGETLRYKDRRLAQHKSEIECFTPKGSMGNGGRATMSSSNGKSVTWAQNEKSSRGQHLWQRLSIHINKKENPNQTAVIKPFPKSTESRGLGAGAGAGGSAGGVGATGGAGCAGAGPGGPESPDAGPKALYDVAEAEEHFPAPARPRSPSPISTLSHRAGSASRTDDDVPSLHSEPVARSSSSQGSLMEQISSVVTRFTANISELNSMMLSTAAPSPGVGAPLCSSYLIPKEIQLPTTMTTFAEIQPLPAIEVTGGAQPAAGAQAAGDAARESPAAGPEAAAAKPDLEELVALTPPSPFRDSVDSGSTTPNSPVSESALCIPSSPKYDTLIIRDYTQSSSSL
Method in brief: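 Potentiation EC50 derived by nonlinear fit of peak calcium fluorescence after a near-5%-maximal glutamate challenge, following 5 min compound exposure (intrinsic activity also recorded). Dye-loaded recombinant human mGluR5 HEK 293 cells in Ringer solution pH 7.4, 1% DMSO; plate controls were vehicle (100%) and 10 μM CDPPB (200%).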

Going from `Cc1cc(-c2nc(C3CCCC(C)C3)n(CC(=O)N3CCN(c4ccccn4)CC3)n2)ccc1F` (stereo not shown) [Example 07.04.149.] to `Cc1cc(-c2nc(C3CCC(C)CC3)n(CC(=O)N3CCN(c4ccccn4)CC3)n2)ccc1F` (stereo not shown) [Example 07.04.129.], the EC50 rises from 869 nM to 1320 nM (1.5-fold).

First: Cc1cc(-c2nc(C3CCCCC3)n(CC(=O)N3CCN(c4ncc(Br)cn4)CC3)n2)ccc1F [Example 07.04.070.]
Second: Cc1ccnc(N2CCN(C(=O)Cn3nc(-c4ccc(F)c(C)c4)nc3C3CCCCC3C)CC2)c1 (stereo not shown) [Example 07.04.134.]
The EC50 of the first is 3.2-fold lower: 318 nM for the first, 1030 nM for the second.

`COC1CCN(c2cc(N3CCN(C(=O)Cn4nc(-c5ccc(F)cc5)nc4-c4ccc(F)cc4)CC3)ncn2)CC1` [Example 07.08.06.] and `Nc1cc(N2CCN(C(=O)Cn3nc(-c4ccc(F)cc4)nc3-c3ccc(F)cc3)CC2)ncn1` [Example 07.03.28.] are within 1.5-fold of each other in EC50: 259 nM for the first, 319 nM for the second.

Going from `CC(C)c1ccc(-c2nc(-c3ccccc3)nn2CC(=O)N2CCN(c3ncccn3)CC2)cc1` [Example 07.10.20.] to `COCc1ccc(-c2nc(-c3ccccc3)nn2CC(=O)N2CCN(c3ncccn3)CC2)cc1` [Example 07.10.24.], the EC50 rises from 35 nM to 300 nM (8.6-fold). The first is the more potent here.

First: O=C(Cn1nc(-c2ccc(F)cn2)nc1-c1ccc(F)cc1)N1CCN(c2ncccn2)CC1 [Example 07.04.140.]
Second: Cc1cc(-c2nc(-c3ccccc3)n(CC(=O)N3CCN(c4ncccn4)CC3)n2)ccc1F [Example 07.10.01., 2-(3-(4-fluoro-3-methyl-phenyl)-5-phenyl-(1,2,4)triazol-1-yl)-1-(4-pyrimidin-2-yl-piperazin-1-yl)-ethanone]
The EC50 of the first is 29-fold higher: 320 nM for the first, 11 nM for the second. The second is the more potent here.

First: CCOC(=O)c1cccc(N2CCN(C(=O)Cn3nc(-c4ccc(F)cc4)nc3-c3ccc(F)cc3)CC2)c1 [Example 07.03.02.]
Second: O=C(Cn1nc(-c2ccc(F)cc2)nc1-c1ccc(F)cc1)N1CCN(c2cc(F)ccn2)CC1 [Example 07.01.04.]
The EC50 of the first is 16-fold higher: 1280 nM for the first, 82 nM for the second. The second is the more potent here.

Going from `Cc1ccnc(N2CCN(C(=O)Cn3nc(-c4cccc(F)c4)nc3-c3cccc(F)c3)CC2)c1` [Example 07.04.024.] to `Cc1cc(-c2nc(-c3ccc(F)c(C)c3)n(CC(=O)N3CCN(c4ccccn4)CC3)n2)ccc1F` [Example 07.04.154.], the EC50 falls from 945 nM to 54 nM (18-fold).

`O=C(Cn1nc(-c2ccccc2)nc1-c1ccc(OC(F)F)cc1)N1CCN(c2ccccn2)CC1` [Example 7.04.166] and `O=C(Cn1nc(-c2ccc(F)cc2)nc1-c1ccc(F)cc1)N1CCN(c2ccc(Br)cn2)CC1` [Example 07.03.20.] are within 1.5-fold of each other in EC50: 431 nM for the first, 467 nM for the second.

Compared with `COc1ccnc(N2CCN(C(=O)Cn3nc(-c4ccc(F)c(C)c4)nc3C(C)C)CC2)c1` [Example 07.04.088.], `CCCCc1nc(-c2ccc(F)c(C)c2)nn1CC(=O)N1CCN(c2cc(C)ccn2)CC1` [Example 07.04.115.] is 4.3-fold lower in EC50: 896 nM for the first, 208 nM for the second. The second is the more potent here.

First: O=C(Cn1nc(-c2ccc(F)cc2)nc1-c1ccc(F)cc1)N1CCN(c2cc(OCCN3CCOCC3)ncn2)CC1 [Example 07.09.07.]
Second: CN(CC1CCOC1)c1cc(N2CCN(C(=O)Cn3nc(-c4ccc(F)cc4)nc3-c3ccc(F)cc3)CC2)ncn1 (stereo not shown) [Example 07.08.01., 2-(3,5-bis-(4-fluoro-phenyl)-(1,2,4)triazol-1-yl)-1-(4-(6-(methyl-(tetrahydro-furan-3-ylmethyl)-amino)-pyrimidin-4-yl)-piperazin-1-yl)-ethanone]
The EC50 of the first is 1.8-fold lower: 110 nM for the first, 201 nM for the second. The first is the more potent here.

Compared with `COc1cncc(N2CCN(C(=O)Cn3nc(-c4ccc(F)cc4)nc3-c3ccc(F)cc3)CC2)n1` [Example 07.03.18.], `O=C(Cn1nc(-c2ccc(F)cc2)nc1-c1ccc(F)cc1)N1CCN(c2ncccc2C(F)(F)F)CC1` [Example 07.02.02.] is 2.6-fold higher in EC50: 179 nM for the first, 474 nM for the second.

Compared with `Cc1cc(-c2nc(-c3ccccc3)n(CC(=O)N3CCN(c4ncc(Br)cn4)CC3)n2)ccc1Br` [Example 07.04.057.], `Cc1cc(-c2nc(-c3ccccc3)n(CC(=O)N3CCN(c4ncc(Cl)cn4)CC3)n2)ccc1F` [Example 07.04.058.] is 3-fold lower in EC50: 75 nM for the first, 25 nM for the second.

`COc1ccc(-c2nc(C3CCCCC3)n(CC(=O)N3CCN(c4cc(C)ccn4)CC3)n2)cc1` [Example 07.02.26.] showed an EC50 of 252 nM.
